Measurements as given in ChEMBL document CHEMBL4130444, “1,4-Naphthoquinones as inhibitors of Itch, a HECT domain-E3 ligase, and tumor growth suppressors in multiple myeloma” (Eur J Med Chem, 2017).

Experiments:
HCT-116 = assay: Antiproliferative activity against human HCT116 cells incubated for 48 hrs by SRB assay; type: functional; settings: HCT-116, 48 h
MDA-MB-231 = assay: Antiproliferative activity against human MDA-MB-231 cells incubated for 48 hrs by SRB assay; type: functional; settings: MDA-MB-231, 48 h

GI50 (HCT-116): > 10 µM
GI50 (MDA-MB-231): > 10 µM
Compound: O=C(Nc1ccccn1)c1ccc(CNC2=C(Cl)C(=O)c3ccccc3C2=O)cc1
